Assays:
GBM39 cells [1] = test: Next generation sequencing fine structure analysis of EGFRvIII amplification in GBM39 cultures; assay type: cell-based, human; details: Erlotinib Treatment (ERZ) sample (row 4), FIG. 13B, naive samples 110 to 150
GBM39 cells [2] = test: FISH images of EGFRvIII amplification (extrachromosomal or chromosomal DNA) in GBM39 cells; assay type: cell-based, human; details: FIG. 13A
Method: Cytogenetics. Metaphase cells were obtained by treating cells with Karyomax (Gibco) at a final concentration of 0.01 μg/ml for 1-3 hours. Cells were collected, washed in PBS, and resuspended in 0.075 M KCl for 15-30 minutes. Carnoy's fixative (3:1 methanol/glacial acetic acid) was added dropwise to stop the reaction. Cells were washed an additional 3 times with Carnoy's fixative, before being dropped onto humidified glass sides for metaphase cell preparations. For ECdetect analyses, DAPI was added to the slides. Images in the main figures were captured with an Olympus FV1000 confocal microscope. All other images were captured at a magnification of 1000 with an Olympus BX43 microscope equipped with a QiClick cooled camera. FISH was performed by adding the appropriate DNA FISH probe onto the fixed metaphase spreads. A coverslip was added and sealed with rubber cement. DNA denaturation was carried out at 75° C. for 3-5 minutes and the slides were allowed to hybridize overnight at 37° C. in a humidified chamber. Slides were subsequently washed in 0.4×SSC at 50° C. for 2 minutes, followed by a final wash in 2×SSC/0.05% Tween-20. Metaphase cells and interphase nuclei were counterstained with DAPI, a coverslip was applied, and images were captured.

With C#Cc1cccc(Nc2ncnc3cc(OCCOC)c(OCCOC)cc23)c1 [Erlotinib] the “Average copy numbers of amplified intervals as determined from sequencing analysis” value (GBM39 cells [1]) was 5.4, the “Location of EGFRvIII amplification in FISH images” value (GBM39 cells [2]; GBM39 cells after Drug Withdrawal) was “EC amplification” and the “Location of EGFRvIII amplification in FISH images” value (GBM39 cells [2]; GBM39 cells in response to Erlotinib Treatment (ERZ), naive cells EC amplification) was “HSR amplification”.

— patent US11193164B2, “Methods of diagnosing and treating cancer targeting extrachromosomal DNA” (The Regents of the University of California, priority 2017, dated 2021)
